# Key:
# [1] = tested on: Aspergillus niger IFO 6341; assay type: cell-based; details: IFO 6341, 24 h
# Procedure: (§1) Antimicrobial activity against fungi (Aspergillus niger IFO 6341) of the antimicrobial peptides related to the present invention was tested according to a general antimycotic susceptibility test as follows.
# More specifically, a slant or plate medium (“potato dextrose agar” medium manufactured by DIFCO was used typically) adhered with spores (conidia) was prepared in advance, and A. niger (IFO 6341; JIS test strain) were gathered from the medium by scratching the medium surface 4 to 5 times from bottom up with a 1 μL disposable loop and suspended in 25 mL of PBS (free of Mg, Ca) solution containing 0.05% of surfactant (Tween® 80). Thereafter, pipetting was performed using a measuring pipette or the like such that clusters of black spores disappeared completely. The spore concentration of the spore suspension prepared by such method was determined using a hemocytometer while the above-described surfactant containing PBS solution was being diluted accordingly, thereby deriving a spore suspension having a spore concentration of approximately 2.5×10^5 spores/mL. […]
# Next, a test fungus suspension was prepared by adding, with respect to 10 part by mass of the above-described spore suspension, 2 parts by mass of Alamar Blue fluorescence reagent (product of Wako Pure Chemical Industries, Ltd.) and 8 parts by mass of RPMI1640 medium containing 0.165M of MOPS, which was prepared by dissolving 5.2 g of RPMI1640 (product of Irvine Scientific) and 1.0 g of NaHCO3 in 450 mL of sterile distilled water and thereafter adding 17.12 g of MOPS and stirring, and adjusting the pH value to 7.0 by adding NaOH, and then filling up to 500 mL by adding sterile distilled water. […]
# Sixteen hours after the beginning of culturing, the plate was retrieve from the incubator, and the presence of generation (growth) of mycelia in each well (well that had already been fed exclusively by the above-described test drug) used for spore growth inhibition test was evaluated with a microscope. […]
# [2] = tested on: Escherichia coli IFO 3972; test: MIC by liquid medium dilution technique, 96-well microplate, gram-negative bacteria; assay type: cell-based
# Procedure: (§2) Regarding the antimicrobial peptide (samples 1 to 20) related to the present invention, the antimicrobial activities (minimum inhibitory concentration: MIC) with respect to gram-negative bacteria (Escherichia coli IFO 3972) and gram-positive bacteria (Staphylococcus aureus IFO 12732) were determined by a liquid medium dilution technique using a 96-well microplate.
# (§3) First, a drug (synthesized polypeptide) solution having a concentration of 40 times of the highest test concentration was prepared using sterile distilled water, and liquid-bouillon mediums (more specifically, “Mueller Hinton Broth” manufactured by DIFCO) including cation and having drug concentrations of 100, 50, 25, 12.5, 6.3, 3.1, 1.6 and 0.8 μM were respectively produced. The cation included was prepared as follows: dissolving 3.68 g of CaCl2.2H2O in 100 mL of purified water (10 mg.Ca^2+/mL), and thereafter adding 500 μL thereof into 100 mL of Mueller Hinton Broth; and dissolving 8.36 g of MgCl2.6H2O in 100 mL of purified water (10 mg.Mg^2+/mL), and thereafter adding 250 μL thereof into 100 mL of Mueller Hinton Broth. Thereafter, the produced liquid-bouillon mediums including the drug of each concentration were then fed to the 96-well microplate at […] a time.
# (§4) At the same time, test bacteria cultured for 18 hours at 37° C. on an agar plate (“Muller Hinton Agar” manufactured by DIFCO) were gathered by scratching with a loop, and then suspended in a sterilized physiological saline. Bacterial suspension 5 μL prepared at an equivalent of 2×10^7 cells/mL was respectively inoculated (number of bacteria to be tested: approximately 1×10^6 cells/mL) onto the drug solution and fed to each well of the above-described microplate. After inoculation, the microplate was then incubated in an incubator at 37° C., and the presence of bacteria was evaluated based on the turbidity 24 hours later. The minimum drug concentration (polypeptide concentration), in which an increased in turbidity caused by bacteria was not detected at the time of measurement, was defined as MIC (minimum inhibitory concentration) (unit: μM) in the present embodiment. In addition, MIC were determined in the same manner using polymyxin B as a comparison.
# [3] = tested on: Staphylococcus aureus IFO 12732; assay type: cell-based; details: IFO 12732, 24 h
# Procedure: as §2, §3, §4
# [4] = tested on: Aspergillus niger IFO 6341; assay type: cell-based
# Procedure: as §1
# More specifically, a slant or plate medium (“potato dextrose agar” medium manufactured by DIFCO was used typically) adhered with spores (conidia) was prepared in advance, and A. niger (IFO 6341; JIS test strain) were gathered from the medium by scratching the medium surface 4 to 5 times from bottom up with a 1 μL disposable loop and suspended in 25 mL of PBS (free of Mg, Ca) solution containing 0.05% of surfactant (Tween® 80). Thereafter, pipetting was performed using a measuring pipette or the like such that clusters of black spores disappeared completely. The spore concentration of the spore suspension prepared by such method was determined using a hemocytometer while the above-described surfactant containing PBS solution was being diluted accordingly, thereby deriving a spore suspension having a spore concentration of approximately 2.5×10^5 spores/mL.
# At the same time, the above-described two polypeptides (samples 1, 3) and benzalkonium chloride serving as a comparison for antimycotic activity were dissolved in 10 mM of HEPES buffer (pH7.0) respectively to prepare stock solutions with a 2.0 mg/mL drug concentration. These were sequentially diluted to prepare various kinds of test drugs with drug (each polypeptide or benzalkonium chloride) concentrations of 400, 200, 100, 50, 25, 5 and 0.5 μg/mL.
# A spore germination inhibition test and a spore growth inhibition test were performed using the above-prepared drugs and spore suspension as follows.
# First, each of the above-described drugs was fed to the 96-well microplate at 40 μL a time for the spore germination inhibition test. The surplus drugs were stored in a refrigerator (4° C.) to be used for the spore growth inhibition test to be perform at a later date.
# Next, a test fungus suspension was prepared by adding, with respect to 10 part by mass of the above-described spore suspension, 2 parts by mass of Alamar Blue fluorescence reagent (product of Wako Pure Chemical Industries, Ltd.) and 8 parts by mass of RPMI1640 medium containing 0.165M of MOPS, which was prepared by dissolving 5.2 g of RPMI1640 (product of Irvine Scientific) and 1.0 g of NaHCO3 in 450 mL of sterile distilled water and thereafter adding 17.12 g of MOPS and stirring, and adjusting the pH value to 7.0 by adding NaOH, and then filling up to 500 mL by adding sterile distilled water. Then, the fungus suspension was fed at 160 μL a time to the wells in which the above-described drugs were added. In addition, empty wells in which no drug was added were also fed at 160 μL a time for spore growth inhibition test. After feeding, it was cultured under a humid environment for 16 hours in an incubator at 30° C.
# Twenty-four hours and 48 hours after the beginning of culturing, the colour of the mediums in the wells used for spore germination inhibition test and the wells for spore growth inhibition test were observed. Here, those in which the Alamar Blue included within the medium remain blue (oxidized form) were evaluated as positive of antimicrobial activity positive, and those that are pink (reduced form) were evaluated as negative of antimicrobial activity. Moreover, the smallest drug concentration recognized as oxidized form (blue color) was served as MIC (minimum growth inhibitory concentration) in the spore germination inhibition test and the spore growth inhibition test related to the present example.
# [5] = tested on: S. aureus; assay type: cell-based, Staphylococcus aureus
# Procedure: as §3, §4
# Next, the antimicrobial activities (MIC) against gram-positive bacteria (S. aureus) in the presence of serum were tested with the same method as Example 2. […] Thereafter, the produced liquid-bouillon mediums including the drug and the serum of each concentration were then fed to the 96-well microplate at […] a time, and MIC were determined by the method same as Example 2. Sample X in the table is a mixture of sample 1 and sample 16 based on a mass ratio of 1:1. “-” in the table indicate “untested”.
substance,measurement,setting,value
"H-RKKKRKVLMWWMLR-NH2 [sample 1, RKKKRKVLMWWMLR-CONH2]","MIC against A. niger, spore growth inhibition test after 24 hours",[1],100 µg/mL
same,Antimicrobial Activities (MIC) E. coli,"[2]; IFO 3972, 24 h",6.3 µM
same,"antimicrobial activity against E. coli, in words",[2]; comparison stated in text on Table 2,higher antimicrobial activities
same,Antimicrobial Activities (MIC) S. aureus,[3],3.1 µM
same,"MIC against A. niger, spore germination inhibition test after 24 hours","[4]; IFO 6341, 24 h",50 µg/mL
same,"MIC against A. niger, spore germination inhibition test after 48 hours","[4]; IFO 6341, 48 h",50 µg/mL
same,"Antimicrobial Activities (MIC) against S. aureus, horse serum concentration 10%",[5],3.1 µM
same,"Antimicrobial Activities (MIC) against S. aureus, horse serum concentration 20%",[5],3.1 µM
same,"Antimicrobial Activities (MIC) against S. aureus, horse serum concentration 50%",[5],3.1 µM
